Data on one molecule can be found in ChEMBL document CHEMBL4342518, “First Contact: 7-Phenyl-2-Aminoquinolines, Potent and Selective Neuronal Nitric Oxide Synthase Inhibitors That Target an Isoform-Specific Aspartate” (J Med Chem, 2020).

pKi: −log10 of the molar value.

For data set [1], the target named is Nitric oxide synthase, inducible (Homo sapiens, UniProt P35228).
Data set [2] has as its target Nitric oxide synthase 1 (Homo sapiens, UniProt P29475).
Data set [3] addresses Nitric oxide synthase 1 (Rattus norvegicus, UniProt P29476, D597N).
Data set [4] in a line: in vitro. The note with it: human, liver microsomes. Background: Liver microsomes are a subcellular fraction often used to study metabolism.
The nature of data set [5]: in vitro. The conditions noted are these: human, liver microsomes. The source holds these as a separate data set.
Data set [6] is described as follows: in vitro. The note with it: human, liver microsomes, pH 7.4.
For data set [7], the target named is Nitric oxide synthase 1 (Rattus norvegicus, UniProt P29476).
The next data set addresses T1, Nitric oxide synthase 3 (Homo sapiens, UniProt P29474).
T1 sequence (P29474 whole entry): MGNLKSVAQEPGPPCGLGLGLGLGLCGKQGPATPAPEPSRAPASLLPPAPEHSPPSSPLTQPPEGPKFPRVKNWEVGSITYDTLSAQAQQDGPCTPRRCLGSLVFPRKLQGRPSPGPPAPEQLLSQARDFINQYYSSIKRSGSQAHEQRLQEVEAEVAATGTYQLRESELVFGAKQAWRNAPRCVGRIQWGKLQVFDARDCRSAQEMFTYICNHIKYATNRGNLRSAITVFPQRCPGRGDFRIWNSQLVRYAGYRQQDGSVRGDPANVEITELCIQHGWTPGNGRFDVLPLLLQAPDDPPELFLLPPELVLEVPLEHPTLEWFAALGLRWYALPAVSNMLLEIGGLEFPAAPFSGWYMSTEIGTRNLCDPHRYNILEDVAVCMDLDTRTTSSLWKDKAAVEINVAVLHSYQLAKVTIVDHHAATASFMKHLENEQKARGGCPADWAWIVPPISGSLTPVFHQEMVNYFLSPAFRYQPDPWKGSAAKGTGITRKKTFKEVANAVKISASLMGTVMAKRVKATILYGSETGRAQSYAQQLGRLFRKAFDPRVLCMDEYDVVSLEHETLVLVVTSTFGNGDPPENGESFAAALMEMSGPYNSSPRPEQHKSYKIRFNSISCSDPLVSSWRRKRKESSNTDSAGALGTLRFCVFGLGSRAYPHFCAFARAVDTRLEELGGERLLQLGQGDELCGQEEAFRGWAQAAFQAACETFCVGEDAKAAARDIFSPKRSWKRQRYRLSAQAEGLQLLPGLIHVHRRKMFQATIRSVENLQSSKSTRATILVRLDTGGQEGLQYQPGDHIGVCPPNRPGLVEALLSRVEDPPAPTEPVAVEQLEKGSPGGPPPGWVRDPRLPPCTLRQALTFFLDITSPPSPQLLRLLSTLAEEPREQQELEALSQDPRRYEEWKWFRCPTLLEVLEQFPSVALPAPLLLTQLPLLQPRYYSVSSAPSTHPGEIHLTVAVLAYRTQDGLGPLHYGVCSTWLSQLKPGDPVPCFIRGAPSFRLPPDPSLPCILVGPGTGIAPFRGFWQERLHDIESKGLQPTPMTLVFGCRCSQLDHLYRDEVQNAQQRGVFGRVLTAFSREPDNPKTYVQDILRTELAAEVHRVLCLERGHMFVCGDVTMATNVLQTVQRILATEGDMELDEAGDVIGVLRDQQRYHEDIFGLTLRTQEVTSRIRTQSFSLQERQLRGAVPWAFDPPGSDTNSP

Data set [8] is described as follows: in vitro. The note with it: human, liver microsomes. This is another data set of the same source.

Sequence of Nitric oxide synthase 1 (Rattus norvegicus, UniProt P29476) (P29476 whole entry): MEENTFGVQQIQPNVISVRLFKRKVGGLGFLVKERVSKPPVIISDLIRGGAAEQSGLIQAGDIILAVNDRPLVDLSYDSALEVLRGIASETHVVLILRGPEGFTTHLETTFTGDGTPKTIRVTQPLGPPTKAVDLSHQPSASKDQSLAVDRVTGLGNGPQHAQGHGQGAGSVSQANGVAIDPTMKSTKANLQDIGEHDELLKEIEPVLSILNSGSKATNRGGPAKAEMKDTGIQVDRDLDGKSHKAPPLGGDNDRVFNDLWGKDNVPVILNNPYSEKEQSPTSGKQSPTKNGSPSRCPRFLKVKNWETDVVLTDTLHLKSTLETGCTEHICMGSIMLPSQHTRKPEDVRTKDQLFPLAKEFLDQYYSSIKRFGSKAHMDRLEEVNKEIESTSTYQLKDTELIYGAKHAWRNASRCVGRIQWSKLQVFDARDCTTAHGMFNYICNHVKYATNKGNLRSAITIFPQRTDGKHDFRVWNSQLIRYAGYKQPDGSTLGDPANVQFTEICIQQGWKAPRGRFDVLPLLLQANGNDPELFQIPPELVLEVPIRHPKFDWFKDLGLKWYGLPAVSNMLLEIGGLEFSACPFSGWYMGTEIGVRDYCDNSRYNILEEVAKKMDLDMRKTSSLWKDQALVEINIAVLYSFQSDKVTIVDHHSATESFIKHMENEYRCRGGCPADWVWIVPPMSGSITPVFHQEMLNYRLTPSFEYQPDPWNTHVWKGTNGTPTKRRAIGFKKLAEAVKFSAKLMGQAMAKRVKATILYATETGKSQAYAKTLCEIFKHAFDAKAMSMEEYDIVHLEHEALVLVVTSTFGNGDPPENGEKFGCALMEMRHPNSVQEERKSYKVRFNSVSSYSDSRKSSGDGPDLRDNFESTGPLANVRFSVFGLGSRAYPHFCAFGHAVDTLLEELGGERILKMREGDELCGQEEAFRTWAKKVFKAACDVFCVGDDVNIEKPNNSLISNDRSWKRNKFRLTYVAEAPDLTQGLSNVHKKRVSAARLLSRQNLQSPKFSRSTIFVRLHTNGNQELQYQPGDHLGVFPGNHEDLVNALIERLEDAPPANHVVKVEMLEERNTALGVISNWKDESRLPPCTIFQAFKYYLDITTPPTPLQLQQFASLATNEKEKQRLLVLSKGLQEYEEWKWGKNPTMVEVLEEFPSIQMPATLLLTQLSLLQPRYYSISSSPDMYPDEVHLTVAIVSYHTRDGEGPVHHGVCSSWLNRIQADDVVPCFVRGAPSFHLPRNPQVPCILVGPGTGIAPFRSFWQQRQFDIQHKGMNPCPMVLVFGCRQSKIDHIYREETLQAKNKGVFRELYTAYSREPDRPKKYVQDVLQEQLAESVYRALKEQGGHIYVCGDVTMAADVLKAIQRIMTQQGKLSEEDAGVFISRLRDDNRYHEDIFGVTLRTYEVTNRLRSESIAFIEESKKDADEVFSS
Sequence of Nitric oxide synthase 1 (Rattus norvegicus, UniProt P29476, D597N) (P29476 whole entry D597N): as the sequence (P29476 whole entry) above, with D597N counted along it
Sequence of Nitric oxide synthase, inducible (P35228 whole entry): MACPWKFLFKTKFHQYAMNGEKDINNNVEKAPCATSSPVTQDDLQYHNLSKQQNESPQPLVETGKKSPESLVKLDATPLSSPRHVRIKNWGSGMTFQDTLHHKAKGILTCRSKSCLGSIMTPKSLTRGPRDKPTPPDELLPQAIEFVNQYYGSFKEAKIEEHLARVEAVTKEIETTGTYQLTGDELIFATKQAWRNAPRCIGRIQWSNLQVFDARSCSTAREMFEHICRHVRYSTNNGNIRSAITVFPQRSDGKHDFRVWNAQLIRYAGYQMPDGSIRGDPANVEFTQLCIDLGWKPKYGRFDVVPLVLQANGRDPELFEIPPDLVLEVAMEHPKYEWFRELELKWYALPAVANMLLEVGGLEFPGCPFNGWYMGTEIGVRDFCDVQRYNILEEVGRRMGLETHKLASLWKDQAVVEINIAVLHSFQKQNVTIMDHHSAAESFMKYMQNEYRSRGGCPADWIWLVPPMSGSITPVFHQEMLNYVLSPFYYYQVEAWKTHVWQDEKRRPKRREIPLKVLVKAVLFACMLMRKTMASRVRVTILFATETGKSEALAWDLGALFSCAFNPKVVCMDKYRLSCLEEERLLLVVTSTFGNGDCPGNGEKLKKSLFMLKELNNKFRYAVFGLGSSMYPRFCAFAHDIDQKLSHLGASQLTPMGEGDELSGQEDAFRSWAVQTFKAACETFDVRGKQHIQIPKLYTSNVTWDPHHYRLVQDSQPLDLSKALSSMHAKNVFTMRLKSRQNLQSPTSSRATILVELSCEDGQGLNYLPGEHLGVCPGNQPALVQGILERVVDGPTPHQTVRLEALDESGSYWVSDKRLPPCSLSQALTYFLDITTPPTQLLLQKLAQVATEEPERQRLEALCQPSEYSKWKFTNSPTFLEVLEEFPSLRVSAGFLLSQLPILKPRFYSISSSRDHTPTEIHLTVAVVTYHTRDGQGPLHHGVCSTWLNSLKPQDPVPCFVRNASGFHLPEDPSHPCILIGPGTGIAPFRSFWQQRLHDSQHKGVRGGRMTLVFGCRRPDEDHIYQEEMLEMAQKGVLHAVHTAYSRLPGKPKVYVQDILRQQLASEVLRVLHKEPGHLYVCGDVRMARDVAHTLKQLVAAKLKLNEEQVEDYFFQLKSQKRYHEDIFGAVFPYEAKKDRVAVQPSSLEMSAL
Sequence of Nitric oxide synthase 1 (Homo sapiens, UniProt P29475) (P29475 whole entry): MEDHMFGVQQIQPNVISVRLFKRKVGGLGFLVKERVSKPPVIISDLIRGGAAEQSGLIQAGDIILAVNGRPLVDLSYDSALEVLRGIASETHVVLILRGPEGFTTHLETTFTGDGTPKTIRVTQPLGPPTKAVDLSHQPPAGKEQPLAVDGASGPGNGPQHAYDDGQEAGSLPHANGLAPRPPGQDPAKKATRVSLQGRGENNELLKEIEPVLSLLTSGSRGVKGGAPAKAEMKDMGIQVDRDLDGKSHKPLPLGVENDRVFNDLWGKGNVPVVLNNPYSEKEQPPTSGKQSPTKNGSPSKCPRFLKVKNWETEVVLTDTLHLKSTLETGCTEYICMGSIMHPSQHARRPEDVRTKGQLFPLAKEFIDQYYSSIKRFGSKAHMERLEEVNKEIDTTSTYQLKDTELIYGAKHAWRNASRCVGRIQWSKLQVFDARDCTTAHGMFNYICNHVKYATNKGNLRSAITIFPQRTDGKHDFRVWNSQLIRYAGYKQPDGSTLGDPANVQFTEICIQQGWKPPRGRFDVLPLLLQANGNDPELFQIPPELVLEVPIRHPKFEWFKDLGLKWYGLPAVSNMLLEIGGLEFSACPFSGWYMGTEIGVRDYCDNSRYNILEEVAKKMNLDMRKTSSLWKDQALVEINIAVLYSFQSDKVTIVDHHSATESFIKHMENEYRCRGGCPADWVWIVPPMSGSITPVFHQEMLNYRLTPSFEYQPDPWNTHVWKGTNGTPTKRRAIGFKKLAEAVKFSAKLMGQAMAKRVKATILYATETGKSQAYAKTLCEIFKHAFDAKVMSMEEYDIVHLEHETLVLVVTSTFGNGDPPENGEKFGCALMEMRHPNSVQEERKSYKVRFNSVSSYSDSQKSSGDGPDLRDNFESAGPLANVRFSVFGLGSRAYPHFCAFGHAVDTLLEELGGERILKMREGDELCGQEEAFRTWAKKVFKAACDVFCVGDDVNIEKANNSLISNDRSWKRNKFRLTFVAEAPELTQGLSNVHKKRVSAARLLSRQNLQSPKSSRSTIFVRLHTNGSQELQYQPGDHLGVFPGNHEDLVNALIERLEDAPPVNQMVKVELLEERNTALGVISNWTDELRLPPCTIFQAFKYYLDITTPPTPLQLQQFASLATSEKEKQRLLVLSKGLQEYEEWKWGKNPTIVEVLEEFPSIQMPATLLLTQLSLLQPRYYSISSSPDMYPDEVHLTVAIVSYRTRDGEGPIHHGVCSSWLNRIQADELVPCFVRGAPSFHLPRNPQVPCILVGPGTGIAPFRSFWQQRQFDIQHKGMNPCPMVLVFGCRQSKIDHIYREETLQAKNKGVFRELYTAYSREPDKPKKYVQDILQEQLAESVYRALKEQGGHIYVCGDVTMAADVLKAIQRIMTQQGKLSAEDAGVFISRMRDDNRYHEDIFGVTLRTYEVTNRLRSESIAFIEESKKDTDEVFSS

As usually defined, the pKi is the negative decadic logarithm of the Ki, by convention in mol/L. Low readings indicate a high Ki, high ones a low Ki. One may read the fraction remaining as the share of the starting amount still present when the sample was taken. One may read the CLint scaled as a measure of how fast metabolising enzymes remove a compound, apart from limits set by blood flow. The low end stands for slow turnover, the high end for rapid turnover. The term half-life denotes the time needed for the level to fall by half in the phase considered. A low value points to fast loss. Regarding `Cc1cc(N)nc2cc(-c3cccc(CN)c3)ccc12.Cl.Cl`, the pKi in [1] was 4.52; on Nitric oxide synthase 1 [2], 7.22; on Nitric oxide synthase 1 [3] it was 6.38; on Nitric oxide synthase 1 [7] it was 7.26; at Nitric oxide synthase 3 it was 4.28. Further, the share remaining at 1 h, 1.426 µM in the data set “in vitro [4]” is 87%; in “in vitro [6]”, 67%. The molecule also gave a CLint scaled at 1 h, 1.426 µM in the data set “in vitro [5]” of 8 mL/min/kg. In addition, the half-life at 1 h, 1.426 µM in the data set “in vitro [8]” was more than 1 h.
